Data on one compound can be found in patent US20160279076A1, “METHODS FOR IMPROVEMENT OF VISUAL FUNCTION AND COMPOSITIONS USED THEREIN” (priority 2015, published 2016).

The subject of the assay is ARPE-19 cells. The assay is described as follows: Gene expression analysis in ARPE-19 cells after lutein pretreatment and UV exposure. To be noted: for Down-regulated genes expression / Up-regulated genes expression: 10 μM lutein 24 hour pretreatment. In kind it is cell-based, human. How it is done: Retinal pigment epithelial (RPE) cells play a key protective role by shielding retina from damaging UV rays and are used as a model to study the effect of macular carotenoids. In this study, a human RPE cell line (ARPE-19 cells were acquired from American Type Culture Collection (ATCC)) was either treated with placebo or treated with macular carotenoids alone or in combination for 24 hours prior to UV exposure. Cells were maintained for another 18 hours, then harvested for gene expressions. In another study, acetylcholinesterase and catalase activities in the presence of macular carotenoids were tested.
According to Study 1, Cell line ARPE-19 was subjected to 24 hour pretreatment with 10 μM lutein, followed by exposure to UV radiation of 1 J/m^2 for 7 seconds.
According to Study 2, Cell line ARPE-19 was subjected to 24 hour pretreatment with 10 μM lutein, followed by exposure to UV radiation of 300 J/m^2 for 10 minutes.
Gene expression analysis was carried out in response to UV exposure and macular carotenoid administration.

For `CC1=C[C@H](O)CC(C)(C)[C@H]1/C=C/C(C)=C/C=C/C(C)=C/C=C/C=C(C)/C=C/C=C(C)/C=C/C1=C(C)C[C@@H](O)CC1(C)C` [Lutein, lutein], for the setting “with UV exposure”, the Down-regulated genes expression entry is “inhibits inflammation”; the Up-regulated genes expression result is “inhibits oncogenesis and growth factor tumor suppressors”. Further, for the setting “without UV exposure”, the Down-regulated genes expression result was “inhibits DNA damage and inflammation”; the Up-regulated genes expression entry was “inhibits oncogenesis and inflammation”. Under “ARPE-19 cells, UV irradiation”, the “Gene expression analysis, overall role for vision health” value is “plays a protective role for vision health”.
